Where only a bound is given, the exact number is not on record here.

For the first assay, the system named is Lox-IMVI melanoma cell line. Kind of assay: Lox-IMVI anti-proliferative assay (growth inhibition, Cell Titer-Glo). It is filed as cell-based, human. To be noted: Homo sapiens; IC50 activity level in the cell-based Lox-IMVI anti-proliferative assay; read-out: Activity. Put shortly: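 Luminescence from cellular ATP measured viability at compound addition and again after 72 h of exposure (37 °C, 5% CO2, RPMI + 10% FBS). Doses spanned 0.5 nM to 10 μM in ten 3-fold steps with 0.2% DMSO. Values were fitted as % of DMSO-treated cells by sigmoidal dose-response.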
On the technique in general: In ATP-based viability assays light output follows the ATP content of the culture.
As for `NC(=O)[C@H]1CC[C@@H](n2c(Nc3c(Cl)cc(Cl)cc3Cl)nc3cnc(N[C@@H]4CCOC4)nc32)CC1` [Example 76, (1S,4s)-4-(2-((R)-tetrahydrofuran-3-ylamino)-8-(2,4,6-trichlorophenylamino)-9H-purin-9-yl)cyclohexanecarboxamide], the IC50 was in the range of 250 to 500 nM. As for `N#Cc1cc(F)c(Nc2nc3cnc(NC4CCOCC4)nc3n2[C@H]2CC[C@@H](C(N)=O)CC2)c(F)c1` [Example 309, (1s,4s)-4-(8-(4-cyano-2,6-difluorophenylamino)-2-(tetrahydro-2H-pyran-4-ylamino)-9H-purin-9-yl)cyclohexanecarboxamide], the IC50 is less than 250 nM. `NC(=O)[C@H]1CC[C@@H](n2c(Nc3c(F)ccc(Cl)c3F)nc3cnc(NC4CCOCC4)nc32)CC1` [Example 67, (1s,4s)-4-(8-(3-chloro-2,6-difluorophenylamino)-2-(tetrahydro-2H-pyran-4-ylamino)-9H-purin-9-yl)cyclohexanecarboxamide]: the IC50 is more than 1000 nM.

Consider `CC[C@@H](CO)Nc1ncc2nc(Nc3c(F)cc(Cl)cc3F)n([C@H]3CC[C@@H](C(N)=O)CC3)c2n1` [Example 146, (1R,4s)-4-(8-(4-chloro-2,6-difluorophenylamino)-2-((S)-1-hydroxybutan-2-ylamino)-9H-purin-9-yl)cyclohexanecarboxamide], for which the IC50 lay in the range of 500 to 1000 nM.

Take `CC(C)(C)OC(=O)N1CCC[C@@H](Nc2ncc3nc(Nc4c(F)cccc4F)n([C@H]4CC[C@@H](C(N)=O)CC4)c3n2)C1` [Example 159, (R)-tert-butyl 3-(9-((1s,4S)-4-carbamoylcyclohexyl)-8-(2,6-difluorophenylamino)-9H-purin-2-ylamino)piperidine-1-carboxylate]: the IC50 was more than 1000 nM. For `NC(=O)[C@H]1CC[C@@H](n2c(Nc3c(F)ccc(Cl)c3F)nc3cnc(NC4CCC(F)(F)CC4)nc32)CC1` [Example 291, (1s,4s)-4-(8-(3-chloro-2,6-difluorophenylamino)-2-(4,4-difluorocyclohexylamino)-9H-purin-9-yl)cyclohexanecarboxamide], the IC50 was 500 to 1000 nM. On to `CC[C@H](C)Nc1ncc2nc(Nc3c(F)cc(Cl)cc3Cl)n([C@H]3CC[C@@H](C(N)=O)CC3)c2n1` [Example 339, (1R,4s)-4-(2-(sec-butylamino)-8-(2,4-dichloro-6-fluorophenylamino)-9H-purin-9-yl)cyclohexanecarboxamide], for which the IC50 was in the range of 500 to 1000 nM.

Take `NC(=O)[C@H]1CC[C@@H](n2c(Nc3c(F)cc(Cl)cc3Cl)nc3cnc(N[C@H]4CCC[C@@H]4O)nc32)CC1` [Example 271, (1R,4s)-4-(8-(2,4-dichloro-6-fluorophenylamino)-2-((1S,2S)-2-hydroxycyclopentylamino)-9H-purin-9-yl)cyclohexanecarboxamide]: the IC50 is 500 to 1000 nM. On the same count and under the same terms, as for `C[C@H](CO)Nc1ncc2nc(Nc3c(F)cc(Cl)cc3Cl)n([C@H]3CC[C@@H](C(N)=O)CC3)c2n1` [Example 133, (1S,4s)-4-(8-(2,4-dichloro-6-nuorophenylamino)-2-((R)-1-hydroxypropan-2-ylamino)-9H-purin-9-yl)cyclohexanecarboxamide], the figure is 500 to 1000 nM; as for `C[C@@H]1CC[C@@H](Nc2ncc3nc(Nc4c(F)cc(F)cc4F)n([C@H]4CC[C@@H](C(N)=O)CC4)c3n2)C[C@H]1O` [Example 341, (1S,4s)-4-(2-((1R,3R,4R)-3-hydroxy-4-methylcyclohexylamino)-8-(2,4,6-trifluorophenylamino)-9H-purin-9-yl)cyclohexanecarboxamide], more than 1000 nM; as for `CC(C)Nc1ncc2nc(Nc3ccc(F)cc3Cl)n([C@H]3CC[C@@H](C(N)=O)CC3)c2n1` [Example 97, (1s,4s)-4-(8-(2-chloro-4-fluorophenylamino)-2-(isopropylamino)-9H-purin-9-yl)cyclohexanecarboxamide], more than 1000 nM. In the case of `CC[C@@H](CO)Nc1ncc2nc(Nc3c(F)cc(F)cc3F)n([C@H]3CC[C@@H](C(N)=O)CC3)c2n1` [Example 143, (1R,4s)-4-(2-((S)-1-hydroxybutan-2-ylamino)-8-(2,4,6-trifluorophenylamino)-9H-purin-9-yl)cyclohexanecarboxamide], the IC50 is more than 1000 nM. Turning to `NC(=O)[C@H]1CC[C@@H](n2c(Nc3c(Cl)cc(F)cc3Cl)nc3cnc(N[C@@H]4CC[C@@H](O)C4)nc32)CC1` [Example 214, (1S,4s)-4-(8-(2,6-dichloro-4-fluorophenylamino)-2-((1R,3R)-3-hydroxycyclopentylamino)-9H-purin-9-yl)cyclohexanecarboxamide], the IC50 is more than 1000 nM. Consider `CS(=O)(=O)N1CCC(Nc2ncc3nc(Nc4c(F)cc(F)cc4Cl)n([C@H]4CC[C@@H](C(N)=O)CC4)c3n2)CC1` [Example 294, (1s,4s)-4-(8-(2-chloro-4,6-difluorophenylamino)-2-(1-(methylsulfonyl)piperidin-4-ylamino)-9H-purin-9-yl)cyclohexanecarboxamide], for which the IC50 was more than 1000 nM.

Staying with this assay, now noted: Homo sapiens; Lox-IMVI anti-proliferative assay, IC50 activity level; read-out: Activity.
As for `NC(=O)[C@H]1CC[C@@H](n2c(Nc3c(F)cc(F)cc3Cl)nc3cnc(N[C@H]4CCC(F)(F)C4)nc32)CC1` [Example 589, (1R,4s)-4-(8-(2-chloro-4,6-difluorophenylamino)-2-((S)-3,3-difluorocyclopentylamino)-9H-purin-9-yl)cyclohexanecarboxamide], the IC50 lay in the range of 250 to 500 nM. In the case of `C[C@@H]1COCC[C@H]1Nc1ncc2nc(Nc3c(F)cc(Cl)cc3F)n([C@H]3CC[C@@H](C(N)=O)CC3)c2n1` [Example 532, (1S,4s)-4-(8-(4-chloro-2,6-difluorophenylamino)-2-((3S,4R)-3-methyltetrahydro-2H-pyran-4-ylamino)-9H-purin-9-yl)cyclohexanecarboxamide], the IC50 lay in the range of 250 to 500 nM.

Consider `N#Cc1cc(Cl)c(Nc2nc3cnc(N[C@H]4CCCC[C@H]4O)nc3n2[C@H]2CC[C@@H](C(N)=O)CC2)c(Cl)c1` [Example 519, (1R,4s)-4-(8-(2,6-dichloro-4-cyanophenylamino)-2-((1S,2R)-2-hydroxycyclohexylamino)-9H-purin-9-yl)cyclohexanecarboxamide], for which the IC50 is more than 1000 nM. Regarding `NC(=O)[C@H]1CC[C@@H](n2c(Nc3c(Cl)cc(Cl)cc3Cl)nc3cnc(NCC(F)(F)CO)nc32)CC1` [Example 450, (1s,4s)-4-(2-(2,2-difluoro-3-hydroxypropylamino)-8-(2,4,6-trichlorophenylamino)-9H-purin-9-yl)cyclohexanecarboxamide], the IC50 was more than 1000 nM. `NC(=O)[C@H]1CC[C@@H](n2c(Nc3ccc(Cl)c(F)c3F)nc3cnc(N[C@@H]4CCCC[C@H](O)C4)nc32)CC1` [Example 440, (1S,4s)-4-(8-(4-chloro-2,3-difluorophenylamino)-2-((1R,3S)-3-hydroxycycloheptylamino)-9H-purin-9-yl)cyclohexanecarboxamide]: the IC50 is more than 1000 nM. The same measure, in the same setting: as for `C[C@]1(C(N)=O)CC[C@@H](n2c(Nc3c(F)cc(Cl)cc3Cl)nc3cnc(NC4CCC(F)(F)CC4)nc32)CC1` [Example 528, (1s,4s)-4-(8-(2,4-dichloro-6-fluorophenylamino)-2-(4,4-difluorocyclohexylamino)-9H-purin-9-yl)-1-methylcyclohexanecarboxamide], the figure is less than 250 nM; as for `NC(=O)[C@H]1CC[C@@H](n2c(Nc3c(F)cc(F)cc3Cl)nc3cnc(NC4CCCOCC4)nc32)CC1` (stereo partly drawn) [Example 538, (1s,4s)-4-(8-(2-chloro-4,6-difluorophenylamino)-2-(oxepan-4-ylamino)-9H-purin-9-yl)cyclohexanecarboxamide], 250 to 500 nM.

The same assay, now with this note: Homo sapiens; Lox-IMVI melanoma cell line, anti-proliferative assay; read-out: Activity (IC50 activity level).
Take `C[C@]1(C(N)=O)CC[C@@H](n2c(Nc3c(F)cc(C#N)cc3Cl)nc3cnc(N[C@@H]4CC[C@@H](O)C4)nc32)CC1` [Example 640, (1S,4s)-4-(8-(2-chloro-4-cyano-6-fluorophenylamino)-2-((1R,3R)-3-hydroxycyclopentylamino)-9H-purin-9-yl)-1-methylcyclohexanecarboxamide]: the IC50 is less than 250 nM. With `N#Cc1cc(Cl)c(Nc2nc3cnc(N[C@@H]4CCC(O)C4)nc3n2[C@H]2CC[C@@H](C(N)=O)CC2)c(Cl)c1` (stereo partly drawn) [Example 683, (1S,4s)-4-(8-(2,6-dichloro-4-cyanophenylamino)-2-((1R,3R)-3-hydroxycyclopentylamino)-9H-purin-9-yl)cyclohexanecarboxamide], the IC50 was less than 250 nM. Still for that read-out and setting: as for `C[C@]1(C(N)=O)CC[C@@H](n2c(Nc3c(Cl)cc(C#N)cc3Cl)nc3cnc(N[C@H]4CCC[C@H](O)C4)nc32)CC1` [Example 616, (1R,4s)-4-(8-(2,6-dichloro-4-cyanophenylamino)-2-((1S,3S)-3-hydroxycyclohexylamino)-9H-purin-9-yl)-1-methylcyclohexanecarboxamide], the figure is less than 250 nM; as for `C[C@]1(C(N)=O)CC[C@@H](n2c(Nc3c(F)cc(Cl)cc3Cl)nc3cnc(NC4CCOCC4)nc32)CC1` [Example 674, (1s,4s)-4-(8-(2,4-dichloro-6-fluorophenylamino)-2-(tetrahydro-2H-pyran-4-ylamino)-9H-purin-9-yl)-1-methylcyclohexanecarboxamide], less than 250 nM. `C[C@]1(C(N)=O)CC[C@@H](n2c(Nc3c(Cl)cc(C(F)(F)F)cc3Cl)nc3cnc(NC4CCC4)nc32)CC1` [Example 602, (1s,4s)-4-(2-(cyclobutylamino)-8-(2,6-dichloro-4-(trifluoromethyl)phenylamino)-9H-purin-9-yl)-1-methylcyclohexanecarboxamide]: the IC50 is more than 1000 nM. For the compound `N#Cc1cc(Cl)c(Nc2nc3cnc(NC4CCC(c5ncno5)CC4)nc3n2[C@H]2CC[C@@H](C(N)=O)CC2)c(Cl)c1` (stereo partly drawn) [Example 681, (1s,4s)-4-(2-(4-(1,2,4-oxadiazol-5-yl)cyclohexylamino)-8-(2,6-dichloro-4-cyanophenylamino)-9H-purin-9-yl)cyclohexanecarboxamide], the IC50 is more than 1000 nM.

(Values after patent US11590139B2, “Substituted aminopurine compounds, compositions thereof, and methods of treatment therewith” (Signal Pharmaceuticals, LLC, priority 2014, dated 2023).)
